Data from the supplement of paper PMC10307832.

What was measured:
Assay in all cases: relative viability (nuclei count vs DMSO), 5 days (fraction); higher = more cells survive
[1] = compound: CC(C)C[C@@H](C(=O)N[C@H](C(=O)OC1CCCC1)c1ccccc1)[C@H](O)C(=O)NO [Tosedostat] + C[C@]1(O)C[C@@H](c2nc(-c3ccc4ccc(-c5ccccc5)nc4c3)c3c(N)nccn32)C1 [Linsitinib] (partner 1 µM)
Outline: (§1)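 Values are medians from duplicate plates. Each reflects relative viability, defined as the nuclei count of treated wells over that of vehicle wells. Lung cancer cell lines in 1536-well plates were pin-tool dosed one day after seeding with one drug alone or with a fixed anchor-drug dose plus five library-drug doses (not always all listed) in √10 steps, then fixed, stained and imaged at 4× after 5 days.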

[2] = compound: CC1=NN=C(O1)C2=NN=C(C=C2)N3CCC(CC3)OC4=C(C=CC(=C4)F)Cl + C[C@@H](Oc1cc(-c2cnn(C3CCNCC3)c2)cnc1N)c1c(Cl)ccc(F)c1Cl [Crizotinib] (partner 1 µM)
Outline: as §1

[3] = compound: CC1=NN=C(O1)C2=NN=C(C=C2)N3CCC(CC3)OC4=C(C=CC(=C4)F)Cl + Nc1nc2[nH]cc(CCc3ccc(C(=O)N[C@@H](CCC(=O)O)C(=O)O)cc3)c2c(=O)[nH]1 [Pemetrexed] (partner 0.2 µM)
Outline: as §1

[4] = compound: CC1=NN=C(O1)C2=NN=C(C=C2)N3CCC(CC3)OC4=C(C=CC(=C4)F)Cl + O=C(c1cc(Cc2n[nH]c(=O)c3ccccc23)ccc1F)N1CCN(C(=O)C2CC2)CC1 [Olaparib] (partner 8 µM)
Outline: as §1

Cell Line | relative viability ([1]; first compound 0.02 µM) | relative viability ([1]; first compound 0.06325 µM) | relative viability ([1]; first compound 0.2 µM) | relative viability ([1]; first compound 0.6325 µM) | relative viability ([1]; first compound 2 µM) | relative viability ([2]; first compound 0.253 µM) | relative viability ([2]; first compound 0.8 µM) | relative viability ([2]; first compound 2.53 µM) | relative viability ([2]; first compound 8 µM) | relative viability ([3]; first compound 0.253 µM) | relative viability ([3]; first compound 0.8 µM) | relative viability ([3]; first compound 2.53 µM) | relative viability ([3]; first compound 8 µM) | relative viability ([4]; first compound 0.253 µM) | relative viability ([4]; first compound 0.8 µM) | relative viability ([4]; first compound 2.53 µM) | relative viability ([4]; first compound 8 µM)
NCI-H520 | 1.13 | 0.962 | 0.944 | 1.02 | 1.06 | 0.692 | 0.707 | 0.694 | 0.632 | 0.644 | 0.543 | 0.642 | 0.471 | 0.308 | 0.346 | 0.294 | 0.259
NCI-H1355 | 0.717 | 0.839 | 0.762 | 0.701 | 0.726 | – | – | 0.985 | 0.959 | 0.715 | 0.562 | 0.949 | 0.874 | 0.378 | 0.422 | 0.75 | 0.596
COR-L23 | 1.1 | 0.805 | 0.827 | 0.869 | 0.877 | 0.527 | 0.586 | 0.433 | 0.435 | 0.179 | 0.193 | 0.176 | 0.181 | 0.259 | 0.271 | 0.345 | 0.299
NCI-H2347 | 0.989 | 0.967 | 0.992 | 0.949 | 0.975 | 0.734 | 0.522 | 0.646 | 0.607 | 0.422 | 0.406 | 0.442 | 0.39 | 0.49 | 0.49 | 0.552 | 0.44
LC-2-ad | 0.865 | 0.743 | 0.866 | 0.823 | 0.805 | 0.334 | 0.314 | 0.336 | 0.326 | 0.267 | 0.27 | 0.282 | 0.239 | 0.297 | 0.257 | 0.255 | 0.238
NCI-H2023 | 0.659 | 0.619 | 0.594 | 0.65 | 0.587 | 0.453 | 0.493 | 0.455 | 0.441 | 0.188 | 0.189 | 0.235 | 0.182 | 0.311 | 0.274 | 0.307 | 0.235
NCI-H2228 | 0.792 | 0.63 | 0.686 | 0.612 | 0.525 | 0.357 | 0.408 | 0.533 | 0.42 | 0.28 | 0.333 | 0.3 | 0.363 | 0.461 | 0.291 | 0.702 | 0.637
COR-L 105 | 0.841 | 0.876 | 0.778 | 0.662 | 0.653 | 0.689 | 0.907 | 0.786 | 0.82 | 1.2 | 1.07 | 1.18 | 1.29 | 0.556 | 0.703 | 0.819 | 0.901
PC-3 [JPC-3] | 1.03 | 1 | 1 | 0.946 | 0.653 | 0.754 | 0.791 | 0.818 | 0.75 | 1.05 | 0.816 | 1.06 | 0.791 | 1 | 0.899 | 0.997 | 1.04
NCI-H1755 | 0.942 | 1.02 | 0.985 | 0.965 | 0.939 | 0.578 | 0.576 | 0.619 | 0.512 | 0.424 | 0.426 | 0.418 | 0.365 | 0.65 | 0.616 | 0.657 | 0.562
NCI-H23 | 0.612 | 0.56 | 0.548 | 0.474 | 0.416 | 0.6 | – | 0.454 | 0.441 | 0.669 | 0.543 | 0.698 | 0.622 | 0.164 | 0.272 | 0.327 | 0.302
NCI-H1915 | 1.16 | 1.11 | 1.11 | 1.1 | 0.961 | 0.445 | 0.312 | 0.311 | 0.253 | 0.376 | 0.232 | 0.3 | 0.235 | 0.202 | 0.17 | 0.184 | 0.162
NCI-H2405 | 0.883 | 0.963 | 0.925 | 0.965 | 0.862 | 0.503 | 0.428 | 0.465 | 0.428 | 0.595 | 0.562 | 0.563 | 0.594 | 0.586 | 0.469 | 0.514 | 0.499
EMC-BAC-2 | 0.822 | 0.792 | 0.794 | 0.837 | 0.82 | 0.583 | 0.648 | 0.632 | 0.545 | 0.452 | 0.419 | 0.485 | 0.527 | 0.376 | 0.414 | 0.457 | 0.441
NCI-H2087 | 1 | 0.969 | 0.951 | 1 | 0.886 | 0.652 | 0.598 | 0.544 | 0.486 | 0.561 | 0.534 | 0.511 | 0.47 | 0.502 | 0.34 | 0.485 | 0.425
PC-14 | 0.97 | 0.973 | 0.982 | 0.915 | 0.918 | 0.747 | 0.636 | 0.713 | 0.739 | 0.139 | 0.117 | 0.153 | 0.121 | 0.257 | 0.226 | 0.317 | 0.266
NCI-H2009 | 1.2 | 1.12 | 1.17 | 0.881 | 1.02 | 0.565 | 0.529 | 0.547 | 0.465 | 0.605 | 0.547 | 0.587 | 0.517 | 0.363 | 0.39 | 0.421 | 0.375
